Test results reported in US10426736B2, “Delivering functional nucleic acids to mammalian cells via bacterially-derived, intact minicells” (EnGenelC Molecular Delivery Pty. Ltd., priority 2004, dated 2019).

Experiments:
Caco-2 cell xenograft [1] = experiment: Dosing schedule time-course, Caco-2 xenograft, 5-FU (Example 7); type: in vivo, nude mice; settings: free drug, 1×10^6 ng/dose, intravenous
Protocol: The experiment described in example 6 was repeated with the same controls and experimental groups except that G2 received free 5-FU (1×10^6 ng/dose) and in G3, G4 and G5, the second treatment was carried out with ^EGFRminicells5-FU. Minicells were administered at 1×10^9 per dose and each dose carried ˜80 ng 5-FU, i.e., ˜12,500-fold lower than free drug administration in G2 mice.

[2] = system: human breast adenocarcinoma cell line, MDA-MB-468; experiment: Doxorubicin sensitivity of MDA-MB-468 cell line; type: cell-based; settings: parental MDA-MB-468
Caco-2 cell xenograft [3] = experiment: Dosing schedule time-course, Caco-2 xenograft, irinotecan (Example 6); type: in vivo, nude mice; settings: free drug, ~2.4×10^5 ng/dose, intravenous
Protocol: Allowing sufficient time for efficient delivery of shRNA to the tumor cells before the receptor-targeted, drug-packaged minicells are administered improves the results. A time-course experiment was performed, wherein ^EGFRminicellsshRNA-MDR-1 were administered intravenously in nude mice carrying Caco-2 cell xenograft. In separate groups (n=11 mice per group), mice were given ^EGFRminicellsIrino either at 96 hr (G3), 120 hr (G4) or 144 hr (G5) after the ^EGFRminicellsshRNA-MDR-1 treatment. G1 and G2 were tumor only and free irinotecan (˜2.4×10^5 ng/dose) controls. The minicells were administered at 5×10^8 per dose and each dose carried ˜80 ng of irinotecan packaged in minicells, which is a 3,000-fold lower dose than that administered as free drug.

[4] = system: Human colon cancer cell line Caco-2; experiment: MTT cell proliferation assay, reversal of drug resistance in-vitro; settings: single treatment; 72 hrs; free drugs 25 μM; MTT read at 490 nm
Protocol: Caco-2 cells were seeded at 3×10^6 cells/flask in Minimum Essential Medium with 10% cosmic calf serum and incubated for 3 hours at 37° C., 5% CO2.
The cells were treated with (a) ^EGFRminicellsshRNA-MDR-1, and (b) ^EGFRminicellsshRNA-nonsense. […] Minicells were added at a concentration of 10^10 per flask and all flasks were incubated for 72 hrs. The cells from each treatment were trypsinised and seeded at 1×10^4 cells/ml/well in 24-well plates and were incubated for 3 hrs at 37° C., 5% CO2. The control untreated cells were then incubated with (6 wells/treatment) (a) free irinotecan (25 μM), (b) free 5-FU (25 μM), (c) ^EGFRminicellsIrino, and (d) ^EGFRminicells5-FU.
The ^EGFRminicellsshRNA-MDR-1 treated Caco-2 cells were incubated with (6 wells/treatment) (a) ^CMV minicells5-FU (non-specifically targeted since the bispecific antibody is targeted to a surface protein on cytomegalovirus), (b) free irinotecan, (c) free 5-FU EGFR, (d) ^EGFRminicellsIrino, and (e) ^EGFRminicells5-FU. […]
All cells were incubated for a further 72 hrs followed by the colorimetric MTT cell proliferation assay (Cory et al., 1991) using the CellTiter 96 AQueous One Solution Cell Proliferation Assay (Promega Corp., Madison, Wis., USA), according to the manufacturer's instructions. The colorimetric measurements were read at 490 nm.

## O=c1[nH]cc(F)c(=O)[nH]1 [5-FU, 5-fluorouracil]
Caco-2 cell xenograft [1]
  effect on tumor growth (FIG. 6): no effect

## COc1cccc2c1C(=O)c1c(O)c3c(c(O)c1C2=O)C[C@@](O)(C(=O)CO)C[C@@H]3O[C@H]1C[C@H](N)[C@H](O)[C@H](C)O1 [doxorubicin]
[2]
  sensitivity of cell line to drug: highly sensitive

## CCc1c2c(nc3ccc(OC(=O)N4CCC(N5CCCCC5)CC4)cc13)-c1cc3c(c(=O)n1C2)COC(=O)[C@]3(O)CC [irinotecan]
Caco-2 cell xenograft [3]
  effect on tumor growth (FIG. 5): no effect
[4]
  resistance of Caco-2 cells to treatment (cell viability, FIG. 1): highly resistant
